What was measured:
Format in all cases: cell-based
[1] = system: PR8 4C [A30T] M2 mutant amantadine resistant influenza A virus
Influenza B = system: Influenza B
[2] = system: SHIV-1M2 (ion channel sequence of influenza A M2)

| SMILES | EC50 [1] | EC90 [1] | Comments (Influenza B) | Virus released into the culture supernatant as measured by viral p27 protein [2] | Shift in drug sensitivity caused by the A30T mutation in M2 [1] |
| --- | --- | --- | --- | --- | --- |
| Cn1cc(-c2cccc3cc(C(=O)NC(=N)N)ccc23)cn1 [BIT225, N-carbamimidoyl-5-(1-methyl-1H-pyrazol-4-yl)-2-naphthamide] | ~10 µM | 18 µM | Active | reduced virus released |  |
| NC12CC3CC(CC(C3)C1)C2 [amantadine, reference compound] |  |  |  |  | large shift in drug sensitivity |
